# Measured values as given in ChEMBL document CHEMBL1155609, “New cytotoxic sterol glycosides from the octocoral Carijoa (Telesto) riisei” (2000).
# Test system: HCT-116
# Assay: Cytotoxicity against human HCT116 cells
# Type: functional
# Conditions: read-out: ED50 (the source's name)
smiles,measurement,value
CC(=O)OCC(C)CCC[C@@H](C)[C@H]1CC[C@H]2[C@@H]3C[C@@H](O)[C@@]4(O)C[C@@H](O[C@@H]5OC[C@@H](O)[C@@H](OC(C)=O)[C@@H]5O)CC[C@]4(C)[C@H]3CC[C@]12C (some centres not stated) [RIISEIN A],EC50,2 µg/mL
CC(=O)OCC(C)CCC[C@@H](C)[C@H]1CC[C@H]2[C@@H]3C[C@@H](O)[C@@]4(O)C[C@@H](O[C@@H]5OC[C@@H](OC(C)=O)[C@@H](O)[C@@H]5O)CC[C@]4(C)[C@H]3CC[C@]12C (some centres not stated) [RIISEIN B],EC50,2 µg/mL
